# Reference: paper PMC7822874, “Chemoprotective antimalarials identified through quantitative high-throughput screening of Plasmodium blood and liver stage parasites” (Scientific Reports, 2021)
# Tests used:
# [1] = in vitro; details: human
# [2] = tested on: Plasmodium falciparum Dd2 asexual blood stage parasites; experiment: microbe, parasite or virus in culture; design: species or system Plasmodium falciparum Dd2 in human erythrocytes; single determination (one 11-point concentration-response curve); details: Plasmodium falciparum, DD2, Erythrocyte, 72 h; read-out: AC50
# [3] = HepG2-A16-CD81EGFP cells, uninfected
smiles,measurement,setting,value
COc1ccccc1N1CCN(C(=O)c2ccc3c(=O)n(Cc4ccc5c(c4)OCO5)c(=O)[nH]c3c2)CC1 [MLS001028591-01],viability at 66 h,[1]; [3],94%
same,AC50,[2],2990 nM
C=CC1CN2CCC1CC2C(OC(C)=O)c1ccnc2ccc(OC)cc12 (stereo not drawn) [MLS000851200-01],viability at 66 h,[1],99.9%
same,AC50,[2],1680 nM
COc1cccc(OC)c1C(=O)NC(S)=Nc1ccc2c(c1)C(=O)N(C)C2=O [MLS000331897-01],viability at 66 h,[1]; [3],103%
same,AC50,[2],944 nM
Cc1cc(Nc2ccccc2)nc2cc(O)ccc12 [MLS000586979-01],"viability at 48 h, 1 µM",[1]; [3],100%
same,"viability at 48 h, 3 µM",[1]; [3],100%
same,AC50,[2],422 nM
COc1ccc(-c2oc3ccccc3c2C#Cc2cncn2C)cc1 [MLS002402884-01],"viability at 48 h, 1 µM",[1]; [3],112%
same,"viability at 48 h, 3 µM",[1]; [3],95%
same,AC50,[2],1060 nM
COC(=O)[C@H]1[C@H]2C[C@@H]3c4[nH]c5cc(OC)ccc5c4CCN3C[C@H]2C[C@@H](OC(=O)/C=C/c2cc(OC)c(OC)c(OC)c2)[C@@H]1OC [MLS002153878-01],viability at 48 h,[1],106%
same,"viability at 48 h, 1 µM",[1],106%
same,AC50,[2],5310 nM
CCCn1cc(SCC(=O)NCc2ccco2)c2ccccc21 [MLS000095681-01],"viability at 48 h, 1 µM",[1]; [3],90%
same,"viability at 48 h, 3 µM",[1]; [3],87%
same,AC50,[2],8410 nM
CCCc1cc(=O)oc2cc(C)cc(OCC(=O)NC3CC3)c12 [MLS001159103-01],"viability at 48 h, 1 µM",[1]; [3],121%
same,"viability at 48 h, 3 µM",[1]; [3],104%
same,AC50,[2],4730 nM
COc1cccc(N=C(S)N2CCN(S(=O)(=O)c3ccc(F)cc3)CC2)c1 [MLS001230093-01],"viability at 48 h, 1 µM",[1]; [3],91%
same,"viability at 48 h, 3 µM",[1]; [3],89%
same,AC50,[2],2660 nM
CCCCN(C)CCNC(=O)c1cc2c(-c3cccc(OC)c3)nn(C)c2s1 [MLS001199565-01],"viability at 48 h, 1 µM",[1]; [3],86%
same,"viability at 48 h, 3 µM",[1]; [3],85%
same,AC50,[2],6680 nM
CCCCN(CC)CCNC(=O)c1cc2c(-c3ccc(Cl)cc3)nn(C)c2s1 [NCGC00108995-01],"viability at 48 h, 1 µM",[1]; [3],102%
same,"viability at 48 h, 3 µM",[1]; [3],97%
same,AC50,[2],668 nM
CCOC(=O)c1c(-c2ccccc2)oc2ccc(O)c(CN3CCCC3)c12 [MLS000530619-01],viability at 48 h,[1]; [3],98.8%
same,"viability at 48 h, 1 µM",[1]; [3],98.8%
same,AC50,[2],596 nM
O=c1c(=Cc2ccco2)sc2n1CN(c1cccc(Br)c1)CN=2 [MLS000535198-01],"viability at 48 h, 1 µM",[1]; [3],103%
same,"viability at 48 h, 3 µM",[1]; [3],103%
same,AC50,[2],9440 nM
Nc1nonc1-n1nnc(C(=O)N/N=C/c2cccs2)c1-c1ccc2c(c1)OCO2 [MLS001142649-01],"viability at 48 h, 1 µM",[1]; [3],92%
same,"viability at 48 h, 3 µM",[1]; [3],91%
same,AC50,[2],1680 nM
Cc1cc(Nc2cccc(F)c2)nc(NCc2ccccc2)n1 [MLS000589387-01],"viability at 48 h, 1 µM",[1]; [3],98%
same,"viability at 48 h, 3 µM",[1]; [3],87%
same,AC50,[2],8410 nM
COc1cc(O)c(C(CCN2CCN(c3ccccc3)CC2)c2ccc(N(C)C)cc2)c(OC)c1 (stereo not drawn) [MLS000879536-01],"viability at 48 h, 1 µM",[1]; [3],102%
same,"viability at 48 h, 3 µM",[1]; [3],99%
same,AC50,[2],596 nM
Cc1ccc(S(=O)(=O)c2nnn3c2nc(N2CCN(c4ccccn4)CC2)c2ccccc23)cc1 [MLS001124278-01],viability at 48 h,[1]; [3],98.6%
same,"viability at 48 h, 1 µM",[1]; [3],98.6%
same,AC50,[2],7500 nM
COc1cccc(NC(=O)c2ccc(NCCCN3CCC(C)CC3)c([N+](=O)[O-])c2)c1 [MLS000689409-01],viability at 66 h,[1]; [3],108%
same,AC50,[2],7500 nM
COc1ccc(CCNC(=O)c2cc(C(=O)c3cc(Cl)ccc3O)cn(CCc3ccc(OC)cc3)c2=O)cc1 [MLS000402334-01],viability at 66 h,[1]; [3],105%
same,AC50,[2],3760 nM
Cc1ccc(Cl)cc1N1CCN(Cc2cc3c(cc2O)CCC3)CC1 [MLS000572148-01],"viability at 48 h, 1 µM",[1]; [3],103%
same,"viability at 48 h, 3 µM",[1]; [3],99%
same,AC50,[2],188 nM
COc1ccccc1C1c2[nH]c3ccccc3c2C[C@H]2C(=O)N(C3CCN(Cc4ccccc4)CC3)CC(=O)N12 (stereo partly drawn) [MLS001215063-01],"viability at 48 h, 1 µM",[1]; [3],87%
same,"viability at 48 h, 3 µM",[1]; [3],85%
same,AC50,[2],2110 nM
CCOC(=O)c1nnn(-c2nonc2-n2cccc2)c1CN1CCCCC1 [MLS000090434-01],"viability at 48 h, 1 µM",[1]; [3],102%
same,"viability at 48 h, 3 µM",[1]; [3],100%
same,AC50,[2],7500 nM
C/C(Cl)=C/Cc1c(C)nc2c(ccc3ccccc32)c1O [MLS001211902-01],"viability at 48 h, 1 µM",[1]; [3],86%
same,"viability at 48 h, 3 µM",[1]; [3],92%
same,AC50,[2],841 nM
COC(=O)[C@]1(C)CCC[C@@]2(C)C3CC[C@@]4(C)C[C@]3(CCC21)CC(=O)N4Cc1ccc(OC)cc1 (stereo partly drawn) [MLS002207414-01],viability at 66 h,[1]; [3],96.7%
same,AC50,[2],3760 nM
Cc1cccn2c(=O)c3cc(C(=O)NC4CCCC4)c(=N)n(CCc4ccccc4)c3nc12 [MLS001221260-01],"viability at 48 h, 1 µM",[1]; [3],95%
same,"viability at 48 h, 3 µM",[1]; [3],92%
same,AC50,[2],1880 nM
Oc1ccc(Cl)cc1CNCc1ccc(C(F)(F)F)cc1 [MLS002207454-01],viability at 66 h,[1]; [3],109%
same,AC50,[2],4220 nM
O=S(=O)(c1ccc(Cl)cc1)N1CCN(C(S)=NCC2CCCO2)CC1 (stereo not drawn) [MLS001124005-01],"viability at 48 h, 1 µM",[1]; [3],85%
same,"viability at 48 h, 3 µM",[1]; [3],85%
same,AC50,[2],1880 nM
COc1cc(C(=O)Nc2ccc3nc(N4CCN(C)CC4)cc(C)c3c2)cc(OC)c1OC [MLS001197839-01],"viability at 48 h, 1 µM",[1]; [3],101%
same,"viability at 48 h, 3 µM",[1]; [3],103%
same,AC50,[2],3350 nM
CCN(CC)CCCC(C)Nc1cc(C=Cc2ccccc2Cl)nc2cc(Cl)ccc12 (stereo not drawn) [NCGC00160524-01],"viability at 48 h, 1 µM",[1]; [3],103%
same,"viability at 48 h, 3 µM",[1]; [3],99%
same,AC50,[2],841 nM
CCOC(=O)c1c(CNc2ccncc2)n(C)c2cc(Br)c(O)cc12 [MLS000714612-01],"viability at 48 h, 1 µM",[1]; [3],90%
same,"viability at 48 h, 3 µM",[1]; [3],86%
same,AC50,[2],2660 nM
CCN1CCC(Nc2ccnc3cc(Cl)ccc23)CC1 [MLS000737411-01],"viability at 48 h, 1 µM",[1]; [3],99%
same,"viability at 48 h, 3 µM",[1]; [3],100%
same,AC50,[2],188 nM
Cc1cc(C)cc(Nc2cc(C)nc3nc(C)nn23)c1 [MLS000116612-01],viability at 48 h,[1]; [3],112%
same,"viability at 48 h, 1 µM",[1]; [3],112%
same,AC50,[2],5310 nM
CCCCCCSc1ccc([C@H]2N[C@@](Cc3ccccc3)(C(=O)OC)[C@H]3C(=O)N(C)C(=O)[C@@H]23)cc1 [MLS001361994-01],"viability at 48 h, 1 µM",[1]; [3],112%
same,"viability at 48 h, 3 µM",[1]; [3],100%
same,AC50,[2],4730 nM
CC(C)Oc1ccc(C(CCNCc2ccc(O)cc2)c2ccccc2)cc1 (stereo not drawn) [MLS001164341-01],viability at 66 h,[1]; [3],102%
same,AC50,[2],668 nM
COc1ccc(CN2CCCC(N3CCc4ccccc4C3)C2)c(O)c1 (stereo not drawn) [MLS001001490-01],"viability at 48 h, 1 µM",[1]; [3],84%
same,"viability at 48 h, 3 µM",[1]; [3],89%
same,AC50,[2],2990 nM
COc1ccc(C2C(C(=O)N3CCCCC3)CC(=O)N2c2ccc(OC)cc2)cc1 (stereo not drawn) [MLS000519691-01],"viability at 48 h, 1 µM",[1]; [3],85%
same,"viability at 48 h, 3 µM",[1]; [3],91%
same,AC50,[2],7500 nM
CCCCn1c2c(c(=N)c3c1CCC3)CCC2 [MLS000080126-01],"viability at 48 h, 1 µM",[1]; [3],111%
same,"viability at 48 h, 3 µM",[1]; [3],80%
same,AC50,[2],8410 nM
Oc1ccc(C2NCc3ccccc3-n3cccc32)cc1Cl (stereo not drawn) [MLS000047999-01],"viability at 48 h, 1 µM",[1]; [3],99%
same,"viability at 48 h, 3 µM",[1]; [3],90%
same,AC50,[2],1500 nM
Oc1ccc(Nc2ccnc3cc(Cl)ccc23)cc1 [MLS000737975-01],viability at 66 h,[1]; [3],96.9%
same,AC50,[2],1680 nM
N#Cc1nc(Nc2cc(F)cc(F)c2)c2ncn(CC(F)F)c2n1 [MLS002471784-01],"viability at 48 h, 1 µM",[1]; [3],97%
same,"viability at 48 h, 3 µM",[1]; [3],87%
same,AC50,[2],4730 nM
CCOC(=O)c1c(CN(C)C)n(-c2ccc(C)cc2)c2cc(Br)c(O)cc12 [MLS000705141-01],"viability at 48 h, 1 µM",[1]; [3],101%
same,"viability at 48 h, 3 µM",[1]; [3],101%
same,AC50,[2],4220 nM
COc1cc2c(cc1O)CC[n+]1cc3c(OC)c(OC)ccc3cc1-2 [MLS000563433-01],viability at 66 h,[1]; [3],97.8%
same,AC50,[2],7500 nM
CCOC(=O)c1c(C)[nH]c(C(=O)CSc2nnc(C3CC3)n2N)c1C [MLS000536141-01],"viability at 48 h, 1 µM",[1]; [3],92%
same,"viability at 48 h, 3 µM",[1]; [3],89%
same,AC50,[2],1500 nM
CN(C)c1cc[n+](Cc2ccccc2)cc1 [MLS000070144-01],viability at 66 h,[1]; [3],96.5%
same,AC50,[2],10600 nM
O=C(/C=C/c1ccco1)NC(S)=Nc1ccccc1N1CCCC1 [MLS000663784-01],viability at 48 h,[1]; [3],107%
same,"viability at 48 h, 1 µM",[1]; [3],107%
same,AC50,[2],2660 nM
COc1cc(O)c(C(CCN2CCCC(C)C2)c2ccc(N(C)C)cc2)c(OC)c1 (stereo not drawn) [MLS000879516-01],viability at 48 h,[1]; [3],110%
same,"viability at 48 h, 1 µM",[1]; [3],110%
same,AC50,[2],1680 nM
O=C1C(c2ccccc2)=[N+](O)c2ccccc21 [MLS001241052-01],viability at 66 h,[1]; [3],97.9%
same,AC50,[2],1880 nM
